How the values were obtained:
human pancreatic lipase = molecular target: T1, human pancreatic lipase (Homo sapiens, UniProt P16233); assay: Lipase activity, quinine diimine dye colorimetric assay (Sigma Lipase-PS); format: biochemical
T1 sequence (P16233 17-465): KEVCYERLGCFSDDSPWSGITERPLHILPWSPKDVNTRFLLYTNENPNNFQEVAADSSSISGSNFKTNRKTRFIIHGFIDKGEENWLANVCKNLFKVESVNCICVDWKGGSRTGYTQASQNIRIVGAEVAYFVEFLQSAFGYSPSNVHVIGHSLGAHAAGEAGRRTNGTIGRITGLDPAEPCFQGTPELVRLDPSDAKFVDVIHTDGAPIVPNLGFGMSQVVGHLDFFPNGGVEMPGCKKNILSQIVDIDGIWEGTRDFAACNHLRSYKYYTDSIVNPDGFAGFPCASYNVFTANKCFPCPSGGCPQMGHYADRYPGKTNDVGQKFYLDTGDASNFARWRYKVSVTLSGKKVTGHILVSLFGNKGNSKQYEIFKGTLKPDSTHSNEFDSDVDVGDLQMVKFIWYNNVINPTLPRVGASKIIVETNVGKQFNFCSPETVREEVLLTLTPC
Method: Measurement of Lipase Activity Using a Quinine Diimine Dye Calorimetric Assay
The inhibitory activity of the selected compounds to pancreatic lipase was measured in the following assay available from Sigma Ltd (Lipase-PS™, catalog number 805-A):
The glycerol released from the action of pancreatic and monoglyceride lipase was oxidised to release H2O2. The peroxidase reaction step then produces a quinine dye which is pink in colour and absorbs light at a wavelength of 550 nm.
Individual test compounds were dissolved in DMSO (dimethyl sulphoxide) at 10 mM. DMSO was used to avoid any problems with compounds being water-insoluble.
For individual compounds, the IC50 (concentration at which lipase activity is inhibited to one half of the maximum) was calculated by measuring the inhibitory activity from log-dose response curves using a range of inhibitor concentrations.
A range of standard compounds were assayed in the quinine dye calorimetric assay which provides a rapid method to measure lipase inhibitory activity.

[1] = molecular target: T2, porcine pancreatic lipase (Sus scrofa, UniProt P00591); assay: Lipase enzyme activity, NaOH titration method (lipid micelles); format: biochemical; details: NaOH titration assay
T2 sequence (P00591 1-450): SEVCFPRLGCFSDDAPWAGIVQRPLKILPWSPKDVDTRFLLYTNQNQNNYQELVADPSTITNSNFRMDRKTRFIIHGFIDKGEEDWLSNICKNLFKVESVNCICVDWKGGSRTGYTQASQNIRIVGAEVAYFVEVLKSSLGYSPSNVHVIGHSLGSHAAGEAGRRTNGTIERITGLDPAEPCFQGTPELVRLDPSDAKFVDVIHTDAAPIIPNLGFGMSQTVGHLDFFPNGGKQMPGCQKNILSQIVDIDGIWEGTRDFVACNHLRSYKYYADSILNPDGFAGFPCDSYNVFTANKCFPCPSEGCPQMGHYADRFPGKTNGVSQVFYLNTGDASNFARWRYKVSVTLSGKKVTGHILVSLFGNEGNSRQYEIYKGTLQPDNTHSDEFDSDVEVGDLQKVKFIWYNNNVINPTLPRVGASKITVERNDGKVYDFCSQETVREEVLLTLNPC
Method: Measurement of Lipase Enzyme Activity Using a NaOH Titration Method
The inhibitory activity of the selected compound to pancreatic lipase was measured in the assay described in Pasquier et al; 1996, Vol 7, Nutritional Biochemistry, 293-302.
Log dose/response curves were constructed using a range of inhibitor concentrations.
Selected thieno-oxazinone compounds were tested in the NaOH titration assay. In this assay, the activity of porcine pancreatic lipase in a system containing lipid micelles is recorded. These conditions are therefore similar to those encountered in the gastrointestinal tract.

IC50 (human pancreatic lipase): < 100 nM
IC50 [1]: ≤ 1000 nM
Structure (SMILES): O=c1oc(Nc2ccc(Oc3ccccc3)cc2)nc2sc(Cc3ccccc3)cc12 [Compound 50, 6-Phenylmethyl-2-(4-phenoxy)phenylamino-4H-thieno[2,3-d][1,3]oxazin-4-one]

Reference: US7407954B2, “Thieno-(1,3)-oxazin-4-ones with lipase inhibiting activity” (Alizyme Therapeutics Limited, priority 2001, dated 2008)
